This note sets out measurements from patent US20120115852A1, “HETEROCYCLIC COMPOUNDS AS AUTOTAXIN INHIBITORS” (Merck Patent Gesellschaft Mit Beschrankter Haftung, priority 2009, published 2012).

The target in this assay is T1, recombinant autotaxin (Homo sapiens, UniProt Q13822).
T1 construct: made in house; host or cells: Hi5 insect cells (baculovirus)
The experiment in a line: Autotaxin test (enzyme test), Amplex Red fluorescence with LPC substrate. It counts as biochemical. The conditions noted are these: autotaxin inhibition (enzyme test); for remaining activity at 10 µM: 10 μM compound, read-out: % Control at 10 μM. The method in brief: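 Activity was inferred from H2O2 made from released choline, detected as Amplex Red/peroxidase fluorescence (485 nm excitation, 612 nm emission, kinetic read). Beforehand, Hi5-expressed autotaxin sat with compound 30 min at 22° C, then hydrolysed 75 μM final LPC for 90 min at 37° C, pH 8 Tris buffer.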

The IC50 is the point on the concentration scale where inhibition reaches its midpoint. For the compound `CC(C)(C)CC(=O)N1CCN2C(=O)c3cc(-c4ccc(Cl)s4)ccc3NC(=O)C2C1` (stereo not shown) [Compound A129, 7-(5-Chlorothiophen-2-yl)-2-(3,3-dimethylbutyryl)-1,3,4,11a-tetrahydro-2H,10H-2,4a,10-triaza-dibenzo[a,d]cycloheptene-5,11-dione], the remaining activity at 10 µM came out at 6% and the IC50 was over 1 µM.

For the compound `CC(C)(C)CC(=O)N1CCN2C(=O)c3cc(-c4ccccc4Cl)ccc3NC(=O)C2C1` (stereo not shown) [Compound A103, 7-(2-Chlorophenyl)-2-(3,3-dimethylbutyryl)-1,3,4,11a-tetrahydro-2H,10H-2,4a,10-triaza-dibenzo[a,d]cycloheptene-5,11-dione], the remaining activity at 10 µM was -10% and the IC50 was over 1 µM.

Take `Cc1ccc(-c2ccc3c(c2)C(=O)N2CCN(C(=O)CC(C)(C)C)CC2C(=O)N3)cc1C` (stereo not shown) [Compound A90, 2-(3,3-Dimethylbutyryl)-7-(3,4-dimethylphenyl)-1,3,4,11a-tetrahydro-2H,10H-2,4a,10-triaza-dibenzo[a,d]cycloheptene-5,11-dione]: the remaining activity at 10 µM was found to be 24% and the half-inhibitory concentration (IC50) is over 1 µM.

On to `CC(C)(C)[C@H](N)C(=O)N1CCN2C(=O)c3cc(-c4ccc(Cl)cc4)ccc3NC(=O)C2C1` (stereo partly drawn) [Compound A137, 2-((S)-2-Amino-3,3-dimethylbutyryl)-7-(4-chloro-phenyl)-1,3,4,11a-tetrahydro-2H,10H-2,4a,10-triazadibenzo[a,d]cycloheptene-5,11-dione], for which the remaining activity at 10 µM was -18% and the IC50 is over 1 µM.

Turning to `NC(=O)C(=O)N1CCN2C(=O)c3cc(-c4ccco4)ccc3NC(=O)[C@H]2C1` [Compound A4, 2-((R)-7-Furan-2-yl-5,11-dioxo-3,4,5,10,11,11a-hexahydro-1H-2,4a,10-triazadibenzo[a,d]cyclo-hepten-2-yl)-2-oxoacetamide], the remaining activity at 10 µM worked out at 75%.

Consider `CC(C)CS(=O)(=O)N1CCN2C(=O)c3cc(-c4ccc(Cl)cc4F)ccc3NC(=O)[C@H]2C1` [Compound A173], for which the remaining activity at 10 µM worked out at 1% and the IC50 was in the range of 0.1 to 1 µM.

For the compound `CC(C)(C)CC(=O)N1CCN2Cc3cc(-c4ccccc4F)ccc3NC(=O)C2C1` (stereo not shown) [Compound 26, 2-(3,3-dimethylbutyryl)-7-(2-fluorophenyl)-1,3,4,5,10,11a-hexahydro-2H-2,4-a,10-triazadibenzo[a,d]cyclohepten-11-one], the remaining activity at 10 µM was found to be 73% and the concentration for half-maximal inhibition (IC50) was over 1 µM.

On to `CN1CCN(C(=O)CN2C(=O)[C@H]3CN(C(=O)[C@@H]4CCCN4C4CCNCC4)CCN3C(=O)c3cc(-c4ccc(Cl)cc4F)ccc32)CC1` [Compound A154], for which the remaining activity at 10 µM amounted to 27% and the IC50 is over 1 µM.

On to `O=C1Nc2ccc(-c3ccccc3)cc2C(=O)N2CCN(C(=O)c3cccs3)C[C@H]12` [Compound B15], for which the remaining activity at 10 µM is 79%.

For `Nc1nc(C(=O)N2CCN3C(=O)c4cc(-c5ccc(Cl)cc5)ccc4NC(=O)C3C2)cs1` (stereo not shown) [Compound A50, 2-(2-Aminothiazole-4-carbonyl)-7-(4-chlorophenyl)-1,3,4,11a-tetrahydro-2H,10H-2,4a,10-triaza-dibenzo[a,d]cycloheptene-5,11-dione], the remaining activity at 10 µM was 80%.

As to `CC(C)(C)[C@H](N)C(=O)N1CCN2C(=O)c3cc(-c4ccc(Cl)cc4)ccc3NC(=O)[C@@H]2C1` [Compound A80, (S)-2-((S)-2-Amino-3,3-dimethylbutyryl)-7-(4-chloro-phenyl)-1,3,4,11a-tetrahydro-2H,10H-2,4a,10-triaza-dibenzo[a,d]cycloheptene-5,11-dione], the remaining activity at 10 µM turned out to be 44%.

For `O=C1Nc2ccc(-c3ccc(Cl)cc3)cc2C(=O)N2CCN(C(=O)Cc3ccccn3)CC12` (stereo not shown) [Compound A29, 7-(4-Chlorophenyl)-2-(2-pyridin-2-ylacetyl)-1,3,4,11a-tetrahydro-2H,10H-2,4a,10-triaza-dibenzo[a,d]cycloheptene-5,11-dione], the remaining activity at 10 µM amounted to 51% and the IC50 is over 1 µM.

As to `CC(C)(C)[C@H](O)C(=O)N1CCN2Cc3cc(-c4ccc(Cl)cc4)ccc3NC(=O)C2C1` (stereo partly drawn) [Compound 57, 7-(4-Chlorophenyl)-2-((S)-2-hydroxy-3,3-dimethylbutyryl)-1,3,4,5,10,11a-hexahydro-1H-2,4a,10-triazadibenzo[a,d]cyclohepten-11-one], the remaining activity at 10 µM amounted to 40% and the IC50 is over 1 µM.

Take `Cn1cc(CCC(=O)N2CCN3C(=O)c4cc(-c5ccc(Cl)cc5F)ccc4NC(=O)C3C2)cn1` (stereo not shown) [Compound A95, 7-(4-Chloro-2-fluorophenyl)-2-[3-(1-methyl-1H-pyrazol-4-yl)propionyl]-1,3,4,11a-tetrahydro-2H,10H-2,4a,10-triazadibenzo[a,d]cycloheptene-5,11-dione]: the remaining activity at 10 µM amounted to 15% and the IC50 was over 1 µM.

For the compound `O=C1Nc2ccc(-c3ccc(Cl)cc3)cc2C(=O)N2CCN(C(=O)COc3ccccc3)C[C@H]12` [Compound B21], the remaining activity at 10 µM was 57%.

For `O=C1Nc2ccc(-c3ccc(Cl)cc3F)cc2C(=O)N2CCN(C(=O)[C@H]3CCCN3C3CCNCC3)CC12` (stereo partly drawn) [Compound A93, 7-(4-Chloro-2-fluorophenyl)-2-((R)-1-piperidin-4-ylpyrrolidine-2-carbonyl)-1,3,4,11a-tetrahydro-2H,10H-2,4a,10-triazadibenzo[a,d]cycloheptene-5,11-dione], the remaining activity at 10 µM is 17%.

Regarding `O=C1Nc2ccc(-c3ccc(Cl)cc3)cc2C(=O)N2CCN(C(=O)C3(c4ccccc4)CCCC3)CC12` (stereo not shown) [Compound A106, 7-(4-Chlorophenyl)-2-(1-phenylcyclopentane-carbonyl)-1,3,4,11a-tetrahydro-2H,10H-2,4a,10-triazadibenzo[a,d]cycloheptene-5,11-dione], the remaining activity at 10 µM is -37% and the IC50 was 0.1 to 1 µM.

For the compound `CC(C)(C)CC(=O)N1CCN2C(=O)c3cc(-c4ccc(F)cc4)ccc3NC(=O)C2C1` (stereo not shown) [Compound A130, 2-(3,3-Dimethylbutyryl)-7-(4-fluorophenyl)-1,3,4,11a-tetrahydro-2H,10H-2,4a,10-triaza-dibenzo[a,d]cycloheptene-5,11-dione], the remaining activity at 10 µM is -1% and the IC50 is over 1 µM.

As to `O=C1Nc2ccc(-c3ccc(Cl)cc3)cc2C(=O)N2CCN(C(=O)CO)C[C@H]12` [Compound B14], the remaining activity at 10 µM came out at 80%.

With `CC(C)[C@H](N)C(=O)N1CCN2C(=O)c3cc(-c4ccc(Cl)cc4F)ccc3NC(=O)C2C1` (stereo partly drawn) [Compound A59, 2-((S)-2-Amino-3-methylbutyryl)-7-(4-chloro-2-fluorophenyl)-1,3,4,11a-tetrahydro-2H,10H-2,4a,10-triazadibenzo[a,d]cycloheptene-5,11-dione], the remaining activity at 10 µM is -9% and the IC50 was over 1 µM.

For `CN1CCC(C)(C(=O)N2CCN3C(=O)c4cc(-c5ccc(Cl)cc5)ccc4NC(=O)C3C2)CC1` (stereo not shown) [Compound A107, 7-(4-Chlorophenyl)-2-(1,4-dimethylpiperidine-4-carbonyl)-1,3,4,11a-tetrahydro-2H,10H-2,4a,10-triazadibenzo[a,d]cycloheptene-5,11-dione], the remaining activity at 10 µM was 51% and the IC50 was over 1 µM.

As to `O=C1Nc2ccc(-c3ccc(Cl)cc3)cc2C(=O)N2CCN(C(=O)C3CCCCC3)C[C@H]12` [Compound B17], the remaining activity at 10 µM was 26% and the IC50 was over 1 µM.

Regarding `COc1ccc(-c2ccc3c(c2)C(=O)N2CCN(C(=O)CC(C)(C)C)C[C@@H]2C(=O)N3)cc1` [Compound B25], the remaining activity at 10 µM was 47% and the IC50 is over 1 µM.

With `O=C([C@@H]1CCCN1C1CCNCC1)N1CCN2C(=O)c3cc(-c4ccc(Cl)cc4F)ccc3N(CCC3CCNCC3)C(=O)[C@H]2C1` [Compound A158], the remaining activity at 10 µM stood at 21% and the IC50 is over 1 µM.

For the compound `CC(C)(C)CC(=O)N1CCN2C(=O)c3cc(-c4ccc(C#N)cc4)ccc3NC(=O)C2C1` (stereo not shown) [Compound A132, 4-[2-(3,3-Dimethylbutyryl)-5,11-dioxo-1,2,3,4,5,10,11,11a-octahydro-2,4a,10-triaza-dibenzo[a,d]cyclohepten-7-yl]benzonitrile], the remaining activity at 10 µM was found to be 84%.

Turning to `CC(C)(C)CC(=O)N1CCN2C(=O)c3cc(-c4cccc(C(F)(F)F)c4)ccc3NC(=O)C2C1` (stereo not shown) [Compound A87, 2-(3,3-Dimethylbutyryl)-7-(3-trifluoromethylphenyl)-1,3,4,11a-tetrahydro-2H,10H-2,4a,10-triaza-dibenzo[a,d]cycloheptene-5,11-dione], the remaining activity at 10 µM is 74% and the IC50 is over 1 µM.

Regarding `O=C1Nc2ccc(-c3ccccc3F)cc2C(=O)N2CCN(C(=O)c3ccccn3)CC12` (stereo not shown) [Compound A15, 7-(2-Fluorophenyl)-2-(pyridine-2-carbonyl)-1,3,4,11a-tetrahydro-2H,10H-2,4a,10-triaza-dibenzo[a,d]cycloheptene-5,11-dione], the remaining activity at 10 µM was found to be 55% and the IC50 is over 1 µM.

Regarding `O=C1Nc2ccc(-c3ccc(Cl)cc3F)cc2C(=O)N2CCN(C(=O)[C@@H]3CCCN3C3CCOCC3)C[C@H]12` [Compound A120, (R)-7-(4-Chloro-2-fluorophenyl)-2-[(S)-1-(tetrahydro-pyran-4-yl)pyrrolidine-2-carbonyl]-1,3,4,11a-tetra-hydro-2H,10H-2,4a,10-triazadibenzo[a,d]-cycloheptene-5,11-dione], the remaining activity at 10 µM amounted to 8% and the concentration for half-maximal inhibition (IC50) was in the range of 0.1 to 1 µM.

As to `CC(C)(C)CC(=O)N1CCN2C(=O)c3cc(-c4ccc(Cl)cc4F)ccc3N(CCC3CCNCC3)C(=O)[C@H]2C1` [Compound A157], the remaining activity at 10 µM turned out to be 2% and the concentration for half-maximal inhibition (IC50) was in the range of 0.1 to 1 µM.

`O=C([C@@H]1CCCN1C1CCNCC1)N1CCN2C(=O)c3cc(-c4ccc(Cl)cc4F)ccc3N(CCN3CCOCC3)C(=O)[C@H]2C1` [Compound A153]: the remaining activity at 10 µM was determined as 21% and the IC50 is over 1 µM.
